The subject of assay [1] is sAPP. The experiment in a line: sAPP secretion in AD fibroblasts (immunoblot densitometry). Background: A western blot detects proteins with antibodies after separation by electrophoresis.
Description: (§2) Human fibroblasts were obtained from the Coriell Cell Repositories (Camden N.J.). […] The culture medium was DMEM supplemented with 10% serum (FBS, Gibeo). PC12 cells were obtained from the American Cell Culture Collection and grown to confluence in T75 flasks containing DMEM supplemented with 5% FPS (Gibeo), 10% horse serum (Biofluids) and 1% of a mixture of penicillin (5000 units/ml in G sodium) and streptomycin (5000 μg/ml).
(§3) Complete culture medium was removed just prior to experiments.
(§4) After two hours of incubation, the supernatant was removed and the secreted proteins were precipitated with 10% TCA and resuspended in Tris-glycine SDS electrophoresis sample buffer (Novex). The samples were boiled for 5 min, subjected to electrophoresis and later to immunoblotting for identification of sAPP.
(§5) Conventional immunoblotting techniques were employed. […] The volume of sample loaded was corrected for total cell protein per flask. Proteins were transferred electrophoretically to nitrocellulose membranes. The membranes were saturated with Blotto blocker (Pierce) and incubated overnight at 4° C. with 1:500 6E10 monoclonal antibody from Senetek. After washing, the membranes were incubated for 1 h at room temperature with the secondary antibody, alkaline phosphatase anti-mouse. IfG (Vector Laboratories) and developed using a BCIP/NBT subtrate kit (Vector Laboratories). The bands were quantitated by densitometric analyses (NIH Image, version 1.6) after obtaining a digital image of each membrane.
Assay [2] has as its system fibroblasts from AD patients. The experiment in a line: TEA-induced [Ca2+] elevation (calcium imaging) in AD fibroblasts.
Description: (§6) The culture medium in which cells were grown was Dulbecco's modified Eagle's medium (GIBCO) supplemented with 10% fetal calf serum (Biofluids, Inc.).
(§7) Round, 25-mm glass coverslips were flame-polished and placed inside 35-mm Nunc petri dishes. Cells were seeded (ca. 10-15 cells/mm^2) in these petri dishes and used when cell density was equivalent for all cell lines (ca 180 cells/mm^2). […] Briefly, culture medium was removed and cells were washed at least three times with basal salt solution (BSS; in mM: NaCl 140, KCl 5, CaCl2 2.5, MgCl2 1.5, Hepes 10, glucose 5, pH 7.4). The fluorescent probe was loaded by incubating cells in 1 μM fura 2-AM (Molecular Probes) in 1 ml BSS at room temperature (RT). One hour later, cells were washed thoroughly with BSS and 1 ml of fresh BSS was added for [Ca^2+] baseline measurements. […] A 40× Zeiss Fluor (oil immersion) objective lens was used.
A group of cells was treated with the PKC activator benzolactam prior to the TEA challenge. BL was dissolved in dimethyl sulfoxide (DMSO; Sigma) to achieve a final testing concentration of 50 nM when 1 ml of the dissolved BL was added to the dish 1 minute prior to TEA application. […] Seven to ten petri dishes of cells were tested from each cell line for each experimental condition. In almost all the cell lines, a minimum of 100 cells were tested per treatment per cell line (total 9231 cells). There were only three AC cell lines for which the number of cells in a couple of treatment groups was above 65 but below 100. Experiments for each cell line were repeated on at least one separate occasion (minimum 1-week interval). Response in a given cell was characterized as a double-fold increase in baseline [Ca^2+]
Assay [3] has as its system sAPP. The experiment in a line: sAPP secretion in age-matched control fibroblasts (immunoblot densitometry).
Description: as §2, §3, §4, §5
Assay [4] has as its system 113 pS TEA-sensitive K+ channel. The experiment in a line: Patch-clamp single-channel recording in AD cell line AG06848. It is filed as cell-based, human. The method, then: Patch-claim experiments were performed on 13 separate replicate representative experiments in a well-characterized AD cell line (AG06848) which is normally silent for the 113 pS TEA-sensitive K^+ channel (Etcheberrigaray et al., 1993). The experiment was performed at room temperature (21-23° C.) following standard procedures (Sakmann & Neher, 1983). The culture medium was replaced with the following solution (mM, NaCl 150, KCl 5, CaCl2 2, MgCl2 1, Hepes (NaOH) 10, pH 7.4, prior to recording. Benzolactam was added to a dish after ensuring that the patch is silent for the II 3 pS K^+ channel. The recording electrodes, filled with a high-K^+ solution (mM), KCl 140, CaCl2 2, MgCl2 1, Hepes (NaOH) 10, pH 7.4, were made from Blu Tip capillary tubes (i.d. 1.1-1.2 mm; Oxford Labware) by using a BB-CH-PC Mecanex puller to obtain pipette resistances that were ˜6 MΩ. An Axopath-IC amplifier was used to obtain records and a JVC Vetter PCM videorecorder was used to store the data on tape. The data were acquired and analyzed on a personal computer with a pClamp suite of programs by transferring the information via an Axolab interface from the amplifier. All three components-amplifier, interface, and software-were obtained from Axon Instruments (Foster City, Calif.).
Background: Patch clamp records ionic current or voltage across a cell membrane.

The next assay deals with PKC δ (Homo sapiens, UniProt Q05655). The conditions noted are these: δ isoform vs α; cited from earlier work.
PKC δ, sequence (Q05655 whole entry, canonical isoform): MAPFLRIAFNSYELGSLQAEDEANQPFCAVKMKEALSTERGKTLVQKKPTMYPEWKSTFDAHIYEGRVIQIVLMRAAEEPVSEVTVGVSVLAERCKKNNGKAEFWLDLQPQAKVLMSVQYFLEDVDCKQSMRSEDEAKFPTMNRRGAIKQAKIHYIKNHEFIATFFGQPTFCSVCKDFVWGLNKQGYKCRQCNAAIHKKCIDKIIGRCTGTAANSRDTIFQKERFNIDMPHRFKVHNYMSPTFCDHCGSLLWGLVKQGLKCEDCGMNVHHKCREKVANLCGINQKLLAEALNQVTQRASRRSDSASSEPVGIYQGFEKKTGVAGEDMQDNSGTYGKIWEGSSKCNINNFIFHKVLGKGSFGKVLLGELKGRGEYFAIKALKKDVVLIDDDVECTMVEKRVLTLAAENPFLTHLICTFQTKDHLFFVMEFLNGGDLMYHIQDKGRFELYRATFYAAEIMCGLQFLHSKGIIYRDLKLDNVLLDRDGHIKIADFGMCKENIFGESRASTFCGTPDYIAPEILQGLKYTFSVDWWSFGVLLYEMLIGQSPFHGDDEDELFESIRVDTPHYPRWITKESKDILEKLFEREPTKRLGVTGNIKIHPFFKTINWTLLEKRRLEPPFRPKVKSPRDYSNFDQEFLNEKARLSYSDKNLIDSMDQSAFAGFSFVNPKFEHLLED
For a further assay, the target named is T1, PKC ε (Homo sapiens, UniProt Q02156).
T1 sequence (Q02156 1-737): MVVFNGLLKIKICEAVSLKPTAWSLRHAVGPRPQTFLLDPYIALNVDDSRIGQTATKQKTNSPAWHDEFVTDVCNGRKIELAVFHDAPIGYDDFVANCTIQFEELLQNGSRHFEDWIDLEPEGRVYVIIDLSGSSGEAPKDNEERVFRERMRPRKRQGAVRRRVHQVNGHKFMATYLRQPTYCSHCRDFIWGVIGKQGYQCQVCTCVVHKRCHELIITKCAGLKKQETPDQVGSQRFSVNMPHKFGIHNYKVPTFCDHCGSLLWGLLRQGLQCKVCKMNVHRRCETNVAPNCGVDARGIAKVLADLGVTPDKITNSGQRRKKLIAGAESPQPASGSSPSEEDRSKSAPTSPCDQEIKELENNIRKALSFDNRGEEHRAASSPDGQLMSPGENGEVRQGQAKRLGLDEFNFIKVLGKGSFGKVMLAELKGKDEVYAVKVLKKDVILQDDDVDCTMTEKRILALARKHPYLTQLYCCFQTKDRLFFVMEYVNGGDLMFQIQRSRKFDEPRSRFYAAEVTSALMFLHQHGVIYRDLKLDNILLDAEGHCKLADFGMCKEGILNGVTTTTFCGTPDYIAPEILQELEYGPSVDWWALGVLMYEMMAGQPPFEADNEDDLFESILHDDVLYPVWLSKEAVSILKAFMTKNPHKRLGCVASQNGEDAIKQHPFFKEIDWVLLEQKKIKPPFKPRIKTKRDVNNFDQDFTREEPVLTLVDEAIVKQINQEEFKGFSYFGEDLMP
The conditions noted are these: ε isoform vs α; cited from earlier work.

The conditions of assay [5]: rats, personal communication; cited from earlier work.
Assay [6] deals with sAPP. The assay is described as follows: sAPP secretion in PC12 cells (immunoblot densitometry). The conditions noted are these: for sAPP secretion vs basal level: 10 μM.
Description: as §2, §3, §4, §5
Assay [7] addresses T2, PKC α isoform (Homo sapiens, UniProt P17252). The experiment in a line: Immunoblot of PKC α translocation cytosol to membrane in AC cell lines. It is filed as cell-based. The arrangement: endogenous in cells; host or cells: human skin fibroblast lines from AC controls. Particulars: AC cells, 50 nM. The protocol:
(§1) Cells were grown to confluency (˜90%) in t-75 flasks. […] Fibroblasts were washed twice with ice-cold PBS, scraped in PBS, and collected by low-speed centrifugation. The pellets were resuspended in the following homogenization buffer: 20 mM Tris-HCl, pH 7.5, 2 mM EDTA, 2 mM EGTA, 5 mM DTT, 0.32 M sucrose, 2 mM PMSF, 25 μg/ml leupeptin. Homogenates were immersed in liquid nitrogen, thawed, and centrifuged at 12,000 g for 20 minutes, and the supernatants were used as the cytosolic fraction. The pellets were homogenized in the same buffer containing 1.0% Triton X-100, incubated in ice for 45 minutes, and centrifuged at 12,000 g for 30 minutes. The supernatant from this batch was used as the membranous fraction. […] The membrane was saturated with Blotto blocker (Pierce) by incubating it at RT for an hour. The primary antibody for PKC α isoform (Transduction Laboratories) was diluted (1:1000) in blocking solution and incubated with the membrane for 1 hour at RT. After incubation with the secondary antibody, alkaline phosphatasae antimouse IgG (Vector Laboratories), the membrane was developed using an alkaline phosphatase kit (Vector Laboratories) as per the manufacturer's instructions. The conditions for developing the membranes were kept as similar as possible. […]

Assay [8] relates to age-matched control (AC) fibroblasts. The assay is described as follows: TEA-induced [Ca2+] elevation (calcium imaging) in age-matched control (AC) fibroblasts. The conditions noted are these: 50 nM, 1 minute.
Description: as §6, §7
A group of cells was treated with the PKC activator benzolactam prior to the TEA challenge. BL was dissolved in dimethyl sulfoxide (DMSO; Sigma) to achieve a final testing concentration of 50 nM when 1 ml of the dissolved BL was added to the dish 1 minute prior to TEA application. […] Seven to ten petri dishes of cells were tested from each cell line for each experimental condition. In almost all the cell lines, a minimum of 100 cells were tested per treatment per cell line (total 9231 cells). […]
Assay [9] has as its target T2, PKC α isoform. The experiment in a line: Immunoblot of PKC α translocation cytosol to membrane in AD cell lines. It is filed as cell-based. Also noted: endogenous in cells; host or cells: human skin fibroblast lines from AD patients and AC controls. The conditions noted are these: 50 nM. The method, then: as §1

SMILES strings stand for the structures.

Take `CCCC(=O)O[C@@H]1[C@@H](C)[C@@]2(O)[C@@H](C=C(CO)C[C@]3(O)C(=O)C(C)=C[C@@H]23)[C@@H]2C(C)(C)[C@]12OC(=O)CCC` [PDBu, phorbol 12,13-dibutyrate]: the “sAPP secretion vs basal” value in the assay with sAPP [1] (AD cell lines, 0.5 μM, 2 h) is on record as “maximal at 500 nM”; with sAPP [1] (AD cell lines, 0.5, 1 and 10 μM, 2 h) it was “statistically significant increases”; with sAPP [3] (age-matched control cell lines, 0.5, 1 and 10 μM), “statistical significance was not reached”. The “TEA response vs 4α-PHR-treated cells” value in assay [2] (AD cells, 50 nM, 45 minutes) is reported as “did not differ”. Besides, the “TEA response, shorter incubation times” value in assay [2] (AD cells, 1 and 15 minutes incubation) is on record as “without effect”.
With `CN[C@@H]1C[C@H]2O[C@@](C)([C@@H]1OC)n1c3ccccc3c3c4c(c5c6ccccc6n2c5c31)C(=O)NC4` [staurosporine], the “effect on BL-induced sAPP secretion” value in the assay with sAPP [1] (AD cell lines, 0.5 μM staurosporine 30 min prior to BL) was “completely prevented”. For the same molecule, the “effect on phorbol (PDBu)-induced sAPP secretion” value with sAPP [1] (staurosporine pretreatment, data not shown) was “significantly reduced”. Moreover, in the assay on sAPP [3] (age-matched control cell lines), the “sAPP secretion, staurosporine alone” value is “without effect”. Further, the “effect on increase in sAPP secretion caused by 10 μM BL” value in the assay with sAPP [3] (age-matched control cell lines, 0.5 μM staurosporine pretreatment) is reported as “effective in preventing”.
For `CCCCCCCCC#Cc1ccc2c(c1)C[C@@H](CO)NC(=O)[C@H](C(C)C)N2C` [BL, (2S, 5S)-8-(1′-decynyl)benzolactam], the “K+ channel activity after BL activation” value in assay [4] (AD cell line AG06848, 1 minute BL treatment) was determined as 54%. Moreover, the “cells showing unambiguous 113 pS K+ channel” value in assay [4] (of 13 recordings silent before BL, 1 minute BL treatment) was found to be 7. The “affinity lower than for PKC α” value on PKC δ and at PKC ε was “at least 10 fold” throughout. Further, in [5], the antitumoral activity entry is “shows antitumoral activity”. In addition, the sAPP secretion with sAPP [6] is approximately 3 fold. In the assay with sAPP [6], the “sAPP secretion vs basal level” value is recorded as “significantly increased”. For the same molecule, the “sAPP secretion vs basal” value in the assay on sAPP [1] (AD cell lines, 0.5 μM, 2 h) was “did not reach statistical significance”. For the same molecule, the “sAPP secretion vs basal, post test significance” value in the assay with sAPP [1] (AD cell lines, 1 μM, 2 h) is “significance level of p<0.001”. The “sAPP secretion over basal” value with sAPP [1] (AD cell lines, 10 μM, 2 h) is listed as “almost three-fold increase”. For the same molecule, in assay [2] (AD cell lines, 50 nM, 1 minute), the “percentage of cells responding to TEA vs untreated and DMSO-treated controls” value is “significantly increased”. Further, in assay [2] (AD cells treated with BL (50 nM, 1 minute) before 100 mM TEA), the “percentage of cells responding to TEA” value is recorded as 19.58%. Moreover, the “PKC translocation vs basal levels” value at PKC α isoform [7] (1 minute) is “ns”. The figures for the “PKC α particulate/soluble ratio” value at PKC α isoform [7] (15 minutes) and on PKC α isoform [9] (15 minutes) were 1.72 and 1.156, respectively. Besides, in assay [8], the “percentage of response to TEA vs untreated or DMSO-treated cells” value was “did not differ”. On PKC α isoform [9] (1 minute), the “redistribution of PKC α from cytosol to membrane vs basal ratio” value was “pronounced redistribution”.
Consider `CCCCCCCCCCCC(=O)Oc1ccc([C@H]2[C@@H](C(C)C)C(=O)N[C@@H]2CO)c2ccccc12` [LQ12], for which, in the assay with sAPP [6], the “sAPP secretion vs basal level” value is given as “significantly increased”.

The values are drawn from patent US20030050302A1, “Treatment of conditions associated with amyloid processing using PKC activators” (Neurologic, Inc., priority 2000, published 2003).
